According to patent US8741911B2, “Raf inhibitor compounds” (Eli Lilly and Company, priority 2012, dated 2014):
Like-named read-outs stand apart in the source and are kept apart here.

Columns and labels:
BT-474 = experiment: CellTiter-Glo proliferation and viability assay; type: cell-based; conditions: Homo sapiens
A549 = experiment: CellTiter-Glo proliferation and viability assay; type: cell-based; conditions: Homo sapiens
NCI-H2030 = experiment: CellTiter-Glo proliferation and viability assay; type: cell-based; conditions: Homo sapiens
LNCaP-Clone-FGC = experiment: CellTiter-Glo proliferation and viability assay; type: cell-based; conditions: Homo sapiens
NCI-H23 = experiment: CellTiter-Glo proliferation and viability assay; type: cell-based; conditions: Homo sapiens
AsPC-1 = experiment: CellTiter-Glo proliferation and viability assay; type: cell-based; conditions: Homo sapiens
M059K = experiment: CellTiter-Glo proliferation and viability assay; type: cell-based; conditions: Homo sapiens
Hs746T = experiment: CellTiter-Glo proliferation and viability assay; type: cell-based; conditions: Homo sapiens
KATOIII = experiment: CellTiter-Glo proliferation and viability assay; type: cell-based; conditions: Homo sapiens, KATO III
NCI-H2081 = experiment: CellTiter-Glo proliferation and viability assay; type: cell-based; conditions: Homo sapiens
NCI-H661 = experiment: CellTiter-Glo proliferation and viability assay; type: cell-based; conditions: Homo sapiens
[1] = system: HCT-116 K-Ras mutant B-Raf wild type xenograft; experiment: HCT-116 xenograft tumor model, efficacy; type: in vivo, rat; conditions: nude rats, oral twice a day 30 mg/kg for 21 days
Protocol: Briefly, 10×10^6 cells (A375) or 5×10^6 cells (HCT-116) in a 1:1 medium and matrigel mix (0.2 mL total volume) are implanted by subcutaneous injection in the hind leg of nude female rats (NIH model No. NIHRNU-M from Taconic). A total of 8 rats in each group are used for the efficacy study, and a total of 3-4 rats in each group are used for a pharmacodynamic study. The Eli Lilly and Company Animal Care and Use Committee approved all the experimental protocols. […] Tumor growth and body weight are monitored over time to evaluate activity and signs of toxicity. Bidimensional measurements of tumors are performed twice a week and tumor volumes are calculated based on mid-axis length and mid-axis width. Tumor volume data are transformed to a log scale to equalize variance across time and treatment groups. The log volume data are analyzed with a two-way repeated measures analysis of variance by time and treatment using the MIXED® procedures in SAS® software (version 8.2). The correlation model for the repeated measures is spatial power. Treated groups are compared to the control group at each time point. The MIXED® procedure is also used separately for each treatment group to calculate adjusted means and standard errors at each time point. […]

H9 = experiment: CellTiter-Glo proliferation and viability assay; type: cell-based; conditions: Homo sapiens
PLC-PRF-5 = experiment: CellTiter-Glo proliferation and viability assay; type: cell-based; conditions: Homo sapiens
huH-1 = experiment: CellTiter-Glo proliferation and viability assay; type: cell-based; conditions: Homo sapiens
IM-9 = experiment: CellTiter-Glo proliferation and viability assay; type: cell-based; conditions: Homo sapiens, read-out: Abs IC50
HT-29 cells = experiment: CellTiter-Blue HT-29 cell proliferation assay; type: cell-based; conditions: Homo sapiens; HT-29, CellTiter-Blue; read-out: Cell Proliferation Inhibition IC50
Protocol: HT-29 cells (catalog #HTB-38) are obtained from the American Type Culture Collection (ATCC, Manassas, Va.). Briefly, cells are grown in McCoy's 5A supplemented with 10% characterized fetal bovine serum (Invitrogen, Carlsbad, Calif.), and 1% Penicillin/Streptomycin/L-Glutamine at 37 degrees Celsius, 5% CO2, and 95% humidity. Cells are allowed to expand until reaching 75-90% confluency at which point they are subcultured or harvested for assay use. A serial dilution of test compound is dispensed into a 384-well black clear bottom plate in triplicate. One thousand two-hundred fifty cells are added per well in 50 μL complete growth medium in the 384-well plate. Plates are incubated for 67 hours at 37 degrees Celsius, 5% CO2, and 95% humidity. At the end of the incubation period, 10 μL of a 440 μM solution of resazurin (Sigma, St. Louis, Mo.) in PBS is added to each well of the plate and plates are incubated for an additional 5 hours at 37 degrees Celsius, 5% CO2, and 95% humidity. Plates are read on a Synergy2 reader (Biotek, Winooski, Vt.) using an excitation of 540 nm and an emission of 600 nm. Data is analyzed using Prism software (Graphpad, San Diego, Calif.) to calculate IC50 values.
The A375, HT-29, and Colo-205 cells (ATCC) harbor a V600E mutation.

MIA-PaCa-2 = experiment: CellTiter-Glo proliferation and viability assay; type: cell-based; conditions: Homo sapiens, read-out: Abs IC50
A375res cells = experiment: CellTiter-Glo proliferation and viability assay in vemurafenib-resistant cells; type: cell-based, human; conditions: Homo sapiens, A375res cells
HepG2 = experiment: CellTiter-Glo proliferation and viability assay; type: cell-based; conditions: Homo sapiens
NCI-H1694 = experiment: CellTiter-Glo proliferation and viability assay; type: cell-based; conditions: Homo sapiens
SK-OV-3 = experiment: CellTiter-Glo proliferation and viability assay; type: cell-based; conditions: Homo sapiens
C3A = experiment: CellTiter-Glo proliferation and viability assay; type: cell-based; conditions: Homo sapiens
LOUCY = experiment: CellTiter-Glo proliferation and viability assay; type: cell-based; conditions: Homo sapiens, read-out: Abs IC50
HL-60 = experiment: CellTiter-Glo proliferation and viability assay; type: cell-based; conditions: Homo sapiens
[2] = system: SK-MeI-2 cells harboring N-Ras mutation Q61R, and B-Raf wild type; experiment: CellTiter-Glo proliferation and viability assay; type: cell-based; conditions: Homo sapiens; SK-MeI-2, CellTiter-Glo; read-out: cell proliferation and viability IC50

IC50 (BT-474; read-out: Abs IC50): 11.6 nM
IC50 (BT-474; read-out: Rel IC50): 10.9 nM
IC50 (A549; read-out: Abs IC50): 4.42 nM
IC50 (A549; read-out: Rel IC50): 2.07 nM
IC50 (NCI-H2030; read-out: Abs IC50): 0.83 nM
IC50 (NCI-H2030; read-out: Rel IC50): 0.41 nM
IC50 (LNCaP-Clone-FGC; read-out: Abs IC50): > 20 nM
IC50 (LNCaP-Clone-FGC; read-out: Rel IC50): 2.74 nM
IC50 (NCI-H23; read-out: Abs IC50): 6.27 nM
IC50 (NCI-H23; read-out: Rel IC50): 0.69 nM
IC50 (AsPC-1; ASPC1, read-out: Abs IC50): 1.22 nM
IC50 (AsPC-1; ASPC1, read-out: Rel IC50): 0.38 nM
IC50 (NCI-H2081; read-out: Abs IC50): > 20 nM
IC50 (NCI-H2081; read-out: Rel IC50): > 20 nM
IC50 (NCI-H661; read-out: Abs IC50): > 20 nM
IC50 (NCI-H661; read-out: Rel IC50): 12.6 nM
IC50 (huH-1; read-out: Abs IC50): 1.99 nM
IC50 (huH-1; read-out: Rel IC50): 0.59 nM
IC50 (HT-29 cells): 7 nM
IC50 (MIA-PaCa-2): 1.09 nM
IC50 (A375res cells): 34 nM
IC50 (HepG2; read-out: Abs IC50): 0.06 nM
IC50 (HepG2; read-out: Rel IC50): 0.03 nM
IC50 (NCI-H1694; read-out: Abs IC50): 15.1 nM
IC50 (NCI-H1694; read-out: Rel IC50): 16.3 nM
IC50 (SK-OV-3; read-out: Abs IC50): > 20 nM
IC50 (SK-OV-3; read-out: Rel IC50): 10.8 nM
IC50 (HL-60; read-out: Abs IC50): 0.2 nM
IC50 (HL-60; read-out: Rel IC50): 0.14 nM
IC50 [2]: 188 nM
SMILES: CNc1ncc2cc(-c3cc(NC(=O)NCCC(C)(C)C)c(F)cc3C)c(C)nc2n1 [Example 1, 1-(3,3-Dimethylbutyl)-3-(2-fluoro-4-methyl-5-(7-methyl-2-(methylamino)pyrido[2,3-d]pyrimidin-6-yl)phenyl)urea]
IC50 (M059K; read-out: Abs IC50): 15.1 nM
IC50 (M059K; read-out: Rel IC50): 1.01 nM
IC50 (Hs746T; read-out: Abs IC50): 0.98 nM
IC50 (Hs746T; read-out: Rel IC50): 0.76 nM
IC50 (KATOIII; read-out: Abs IC50): 0.33 nM
IC50 (KATOIII; read-out: Rel IC50): 0.33 nM
tumor growth [1]: statistically significant tumor growth inhibition
IC50 (H9; read-out: Abs IC50): 0.33 nM
IC50 (H9; read-out: Rel IC50): 0.19 nM
IC50 (PLC-PRF-5; read-out: Abs IC50): > 20 nM
IC50 (PLC-PRF-5; read-out: Rel IC50): 11.7 nM
IC50 (IM-9): 0.38 nM
IC50 (C3A; read-out: Abs IC50): > 20 nM
IC50 (C3A; read-out: Rel IC50): 0.6 nM
IC50 (LOUCY): 6.93 nM
